Measurements taken from patent US11124516B2, “Pyrrolo[1,2-A]pyrimidinyl carboxamide compounds and their use in the treatment of medical disorders” (Bial—Biotech Investments, Inc., priority 2016, dated 2021).
In brackets after ≈: the same amount, converted by molar mass.

Tests used:
[1] = Compound solubility in water; format: physicochemical
[2] = target: T1, glucocerebrosidase (Gcase) (Homo sapiens, UniProt P04062); assay: Glucocerebrosidase (Gcase) activation assay, 4-methylumbelliferyl-beta-D-glucopyranoside substrate, fluorescence; format: biochemical; details: 10 nM GCase, 100 nM saposin C; for activation at 0.1 µM / activation at 1 µM: 0.25 h; for activation at 0.1 µM: pH 4.7, test compound at 0.1 μM, read-out: Percent Gcase Activation 0.1 μM Test Compound; for activation at 1 µM: pH 4.7, test compound at 1.0 μM, read-out: Percent Gcase Activation 1 μM Test Compound; for Percent Gcase Activation 0.1 μM Test Compound: test compound at 0.1 μM; for Percent Gcase Activation 0.1 μM Test Compound / Percent Gcase Activation 1 μM Test Compound: pH 4.7; for Percent Gcase Activation 1 μM Test Compound: test compound at 1.0 μM
T1 sequence (P04062 40-536): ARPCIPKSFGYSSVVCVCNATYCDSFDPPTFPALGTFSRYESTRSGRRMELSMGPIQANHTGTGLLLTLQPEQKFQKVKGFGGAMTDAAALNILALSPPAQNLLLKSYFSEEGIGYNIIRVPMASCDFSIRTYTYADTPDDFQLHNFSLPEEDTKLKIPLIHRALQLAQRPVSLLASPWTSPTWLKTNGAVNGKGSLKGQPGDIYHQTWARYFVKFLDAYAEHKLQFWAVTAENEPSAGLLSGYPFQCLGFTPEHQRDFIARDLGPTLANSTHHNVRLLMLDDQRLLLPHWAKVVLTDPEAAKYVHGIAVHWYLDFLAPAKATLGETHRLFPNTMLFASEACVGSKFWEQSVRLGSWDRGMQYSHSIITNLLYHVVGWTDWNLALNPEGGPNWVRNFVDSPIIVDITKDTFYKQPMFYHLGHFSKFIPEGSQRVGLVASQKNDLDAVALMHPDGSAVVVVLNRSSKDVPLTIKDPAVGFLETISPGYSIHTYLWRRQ
Method: The ability of exemplary compounds to activate glucocerebrosidase (Gcase) was measured.
A 484 μL aliquot of a 1.0 mg/mL solution of phosphatidylserine (PS) (Sigma P7769) in chloroform was evaporated under a stream of nitrogen for 1 hour. The lipid film was dissolved over 4 minutes of vigorous vortexing in 40 mL of 176 mM K2HPO4/50 mM citric acid (pH 4.7) containing 7.5 μL of triton X-100, resulting in a mixed micellar preparation with a composition of 0.32 mM triton and 0.37 mol % PS. 4-Methylumbelliferyl-beta-D-glucopyranoside (ACROS-337025000) was dissolved in the micellar solution to a final concentration of 2 mM for use as the reaction substrate.
Test compounds were diluted to the desired concentrations with dimethylsulfoxide (DMSO) from 10 mM stocks, and 0.41 μL of the DMSO compound mixture was added to 100 μL of micellar solution containing 10 nM GCase and 100 nM saposin C (Enzo ALX-201-262-C050). Pre-incubation was allowed to occur for 30 minutes at room temperature, after which the reaction was initiated by combining 25 μL of substrate solution with 25 μL of compound/GCase/saposin mixture. The reaction proceeded for 15 minutes at room temperature and was stopped by adding 150 μL of 1M glycine, pH 12.5. The endpoint of the reaction was monitored by measuring fluorescence intensity (excitation: 365 nm; emission: 440 nm) on a SpectraMax i3 instrument (Molecular Devices). Test compounds were screened at 1.0 and 0.1 μM final concentration, and subsequent 8-point dose response curves were obtained using 3-fold dilutions from a maximum final concentration of 5 μM.
For experiments in which the test compound was used at a concentration of 1.0 μM, the symbol “+” indicates less than 30% Gcase activation; the symbol “++” indicates Gcase activation in the range of 30% up to 60%; and the symbol “+++” indicates Gcase activation greater than 60%. For experiments in which the test compound was used at a concentration of 0.1 μM, the symbol “*” indicates less than 10% Gcase activation; the symbol “**” indicates Gcase activation in the range of 10% up to 20%; and the symbol “***” indicates greater than 20% Gcase activation.

| SMILES | solubility [1] | activation at 0.1 µM [2] | activation at 1 µM [2] | Compound Solubility in Water [1] | Percent Gcase Activation 1 μM Test Compound [2] | Percent Gcase Activation 0.1 μM Test Compound [2] |
| --- | --- | --- | --- | --- | --- | --- |
| Cc1cc(C)n2ccc(C(=O)NC(C)c3ccc4ccccc4c3)c2n1 (stereo not drawn) [IV-31] | 0.2 µg/mL (≈ 0.582 µM) | > 20% | > 60% | – | – | – |
| CCC(NC(=O)c1ccn2c(C)cc(C)nc12)c1ccc(Cl)cc1 (stereo not drawn) [IV-59] | 0.8 µg/mL (≈ 2.34 µM) | > 20% | > 60% | – | – | – |
| Cc1cc(C)n2ccc(C(=O)NC(C)(c3ccccc3)c3ccccc3)c2n1 [IV-39] | 0.8 µg/mL (≈ 2.17 µM) | 10 to 20% | > 60% | – | – | – |
| Cc1cc(C)n2ccc(C(=O)N[C@@H](C)c3ccccc3F)c2n1 [IV-20] | 2.5 µg/mL (≈ 8.03 µM) | > 20% | > 60% | – | – | – |
| CCCCO[C@H]1CC[C@H](NC(=O)c2ccn3c(C)cc(N4CCOCC4)nc23)CC1 [IV-15] | 8.4 µg/mL (≈ 20.3 µM) | 10 to 20% | > 60% | – | – | – |
| Cc1cc(C)n2ccc(C(=O)NC(C3CC3)C(F)(F)F)c2n1 (stereo not drawn) [IV-16] | 3.1 µg/mL (≈ 9.96 µM) | > 20% | > 60% | – | – | – |
| CCCO[C@H]1CC[C@H](NC(=O)c2ccn3c(C(F)F)cc(C)nc23)CC1 [IV-11] | 9 µg/mL (≈ 24.6 µM) | > 20% | > 60% | – | – | – |
| CCC(NC(=O)c1ccn2c(C)cc(C)nc12)c1cccnc1 (stereo not drawn) [IV-50] | 24.7 µg/mL (≈ 80.1 µM) | < 10% | 30 to 60% | – | – | – |
| Cc1cc(C(F)F)n2ccc(C(=O)N[C@H]3CC[C@H](OCC(C)C)CC3)c2n1 [IV-9] | 1.5 µg/mL (≈ 3.95 µM) | > 20% | > 60% | – | – | – |
| Cc1cc(C)n2ccc(C(=O)N[C@@H](C)c3cccc(Cl)c3)c2n1 [IV-28] | 0.7 µg/mL (≈ 2.14 µM) | 10 to 20% | > 60% | – | – | – |
| Cc1cc(C)n2ccc(C(=O)NC(C)c3ccc4c(c3)CC(C)O4)c2n1 (stereo not drawn) [IV-79] | 2.6 µg/mL (≈ 7.44 µM) | > 20% | > 60% | – | – | – |
| Cc1cc(C)n2ccc(C(=O)NC(CC(C)C)c3ccccc3)c2n1 (stereo not drawn) [IV-66] | 1 µg/mL (≈ 2.98 µM) | > 20% | > 60% | – | – | – |
| Cc1ccc([C@H](C)NC(=O)c2ccn3c(C)cc(C)nc23)cc1 [IV-30] | 2.6 µg/mL (≈ 8.46 µM) | 10 to 20% | > 60% | – | – | – |
| Cc1cc(C)n2ccc(C(=O)NC(C)c3cccc4ccccc34)c2n1 (stereo not drawn) [IV-26] | – | – | – | 0.2 µg/mL | +++ (Gcase activation greater than 60%) | ** (Gcase activation in the range of 10% up to 20%) |
| CCc1cc(C)n2ccc(C(=O)N[C@H]3CC[C@H](OC(C)(C)C)CC3)c2n1 [IV-6] | 7.9 µg/mL (≈ 22.1 µM) | 10 to 20% | > 60% | – | – | – |
| Cc1cc(-c2cccc(C(N)=O)c2)nc2c(C(=O)NC(C3CC3)C(F)(F)F)ccn12 (stereo not drawn) [IV-7] | 0.4 µg/mL (≈ 0.961 µM) | > 20% | > 60% | – | – | – |
| CCOc1ccc(C(CC)NC(=O)c2ccn3c(C)cc(C)nc23)cc1F (stereo not drawn) [IV-51] | 0.3 µg/mL (≈ 0.812 µM) | > 20% | > 60% | – | – | – |
| Cc1cc(C)n2ccc(C(=O)N[C@@H](C)c3ccc(F)cc3)c2n1 [IV-21] | 3.3 µg/mL (≈ 10.6 µM) | > 20% | > 60% | – | – | – |
| Cc1cc(C)n2ccc(C(=O)NC(C)(C)c3ccc4c(c3)OCCO4)c2n1 [IV-19] | 2.1 µg/mL (≈ 5.75 µM) | > 20% | > 60% | – | – | – |
| CCC(NC(=O)c1ccn2c(C)cc(C)nc12)c1nc(C2CC2)no1 (stereo not drawn) [IV-58] | 18.5 µg/mL (≈ 54.5 µM) | < 10% | 30 to 60% | – | – | – |
| COc1ccc(C(C)NC(=O)c2ccn3c(C)cc(C)nc23)cc1F (stereo not drawn) [IV-61] | 1.9 µg/mL (≈ 5.57 µM) | > 20% | > 60% | – | – | – |

Further lines, with some results ahead:

| solubility [1] | activation at 0.1 µM [2] | activation at 1 µM [2] | Compound Solubility in Water [1] | Percent Gcase Activation 1 μM Test Compound [2] | SMILES | Percent Gcase Activation 0.1 μM Test Compound [2] |
| --- | --- | --- | --- | --- | --- | --- |
| 11.6 µg/mL (≈ 28.5 µM) | 10 to 20% | > 60% | – | – | Cc1cc(-c2cccnc2)nc2c(C(=O)N[C@H]3CC[C@H](OC(C)(C)C)CC3)ccn12 [III-56] | – |
| 21.7 µg/mL (≈ 84.3 µM) | > 20% | > 60% | – | – | Cc1cc(C)n2ccc(C(=O)N[C@@H](C)C3CC3)c2n1 [III-64] | – |
| 10.9 µg/mL (≈ 36.4 µM) | > 20% | > 60% | – | – | Cc1cc(C)n2ccc(C(=O)NC(CC(C)C)C3CC3)c2n1 (stereo not drawn) [III-24] | – |
| 0.3 µg/mL (≈ 0.928 µM) | < 10% | < 30% | – | – | C[C@H](NC(=O)c1ccn2cc(-c3ccc(F)cc3)cnc12)C1CC1 [III-49] | – |
| 5.8 µg/mL (≈ 19.9 µM) | 10 to 20% | > 60% | – | – | Cc1cc(Cl)n2ccc(C(=O)NC(C)(C)C3CC3)c2n1 [III-12] | – |
| 0.1 µg/mL (≈ 0.309 µM) | < 10% | 30 to 60% | – | – | C[C@H](NC(=O)c1ccn2ccc(-c3ccc(F)cc3)nc12)C1CC1 [III-47] | – |
| 14.7 µg/mL (≈ 51.5 µM) | > 20% | > 60% | – | – | Cc1cc(C)n2ccc(C(=O)NC(C)(C)CC3CC3)c2n1 [III-19] | – |
| 1.3 µg/mL (≈ 3.09 µM) | > 20% | > 60% | – | – | Cc1cc(-c2cccnc2)nc2c(C(=O)N[C@H]3CC[C@H](OCC(C)(C)C)CC3)ccn12 [III-60] | – |
| 33.5 µg/mL (≈ 102 µM) | 10 to 20% | > 60% | – | – | C[C@H](NC(=O)c1ccn2c(C(F)F)cc(C(F)F)nc12)C1CC1 [III-6] | – |
| 6.3 µg/mL (≈ 18.1 µM) | < 10% | 30 to 60% | – | – | Cc1ccnc2c(C(=O)NC3(c4ccccc4OC4CC4)CC3)ccn12 [III-34] | – |
| 10.1 µg/mL (≈ 28.3 µM) | 10 to 20% | > 60% | – | – | Cc1cc(NC2CCOCC2)nc2c(C(=O)NC(C)(C)C3CC3)ccn12 [III-38] | – |
| 1.4 µg/mL (≈ 3.76 µM) | < 10% | 30 to 60% | – | – | Cc1cc(-c2cocn2)nc2c(C(=O)N[C@H]3CCCc4ccccc43)ccn12 [III-28] | – |
| 0.3 µg/mL (≈ 0.889 µM) | < 10% | 30 to 60% | – | – | CC(C)(NC(=O)c1ccn2ccc(-c3ccc(F)cc3)nc12)C1CC1 [III-46] | – |
| 7.7 µg/mL (≈ 25.2 µM) | 10 to 20% | > 60% | – | – | Cc1cc(C)n2ccc(C(=O)NC3(c4ccccc4)CC3)c2n1 [III-18] | – |
| 24.8 µg/mL (≈ 96.4 µM) | < 10% | < 30% | – | – | Cc1cc(C)n2ccc(C(=O)NC(=O)C3CC3)c2n1 [III-74] | – |
| 3.4 µg/mL (≈ 10.1 µM) | 10 to 20% | > 60% | – | – | Cc1cc(-c2cncnc2)nc2c(C(=O)NC(C)(C)C3CC3)ccn12 [III-42] | – |
| 1.1 µg/mL (≈ 3.77 µM) | > 20% | > 60% | – | – | Cc1cc(Cl)nc2c(C(=O)NC(C)(C)C3CC3)ccn12 [III-11] | – |
| – | – | – | 4.2 µg/mL | +++ (Gcase activation greater than 60%) | Cc1cc(C)n2ccc(C(=O)NC(C)C3CCCCC3)c2n1 (stereo not drawn) [III-63] | *** (greater than 20% Gcase activation) |
| 11.5 µg/mL (≈ 40 µM) | 10 to 20% | > 60% | – | – | COc1cc(C)n2ccc(C(=O)NC(C)(C)C3CC3)c2n1 [III-13] | – |
| 1.5 µg/mL (≈ 5.04 µM) | < 10% | > 60% | – | – | Cc1nc2c(C(=O)NC(C)(C)C3CC3)ccn2c2c1CCC2 [III-72] | – |
| 12.3 µg/mL (≈ 32.2 µM) | < 10% | 30 to 60% | – | – | Cc1cc(NC2CC3CCC(C2)O3)nc2c(C(=O)NC(C)(C)C3CC3)ccn12 (stereo not drawn) [III-45] | – |
| 3.8 µg/mL (≈ 11.3 µM) | > 20% | > 60% | – | – | COCc1cc(C(F)F)nc2c(C(=O)NC(C)(C)C3CC3)ccn12 [III-3] | – |
| 21.3 µg/mL (≈ 62.4 µM) | < 10% | 30 to 60% | – | – | Cc1cc(C2CCOCC2)nc2c(C(=O)NC(C)(C)C3CC3)ccn12 [III-36] | – |
